In one assay the test system is Alternaria solani. Kind of assay: In vivo preventive test on Alternaria test (tomatoes) (Example G1). The settings on record: 3 days after inoculation. The source says: (§1) A synergistic effect of fungicides is always present when the fungicidal activity of the active compound combinations exceeds the total of the activities of the active compounds when applied individually. The expected activity for a given combination of two active compounds can be calculated as follows (cf. Colby, S. R., “Calculating Synergistic and Antagonistic Responses of Herbicide Combinations,” Weeds 1967, 15, 20-22):
(§2) If • X is the efficacy when active compound A is applied at an application rate of m ppm (or g/ha), • Y is the efficacy when active compound B is applied at an application rate of n ppm (or g/ha), • Z is the efficacy when active compound […] ppm (or g/ha), • E1 is the efficacy when the active compounds A and B are applied at application rates of m and n ppm (or g/ha), respectively, and • E2 is the efficacy when the active compounds A, B and C are applied at application rates of m, n and r ppm (or g/ha), respectively, and then
(§3) The degree of efficacy, expressed in % is denoted. 0% means an efficacy which corresponds to that of the control while an efficacy of 100% means that no disease is observed.
(§4) If the actual fungicidal activity exceeds the calculated value, then the activity of the combination is superadditive, i.e., a synergistic effect exists. In this case, the efficacy which was actually observed must be greater than the value for the expected efficacy (E) calculated from the abovementioned formula.
(§5) Solvent: 24.5 parts by weight of acetone • 24.5 parts by weight of dimethyl sulfoxide
(§6) Emulsifier: 1 part by weight of alkylaryl polyglycol ether
(§7) To produce a suitable preparation of active compound, 1 part by weight of active compound is mixed with the stated amounts of solvent and emulsifier, and the concentrate is diluted with water to the desired concentration.
To test for preventive activity, young plants are sprayed with the preparation of active compound at the stated rate of application. After the spray coating has dried on, the plants are inoculated with an aqueous spore suspension of Alternaria solani. The plants are then placed in an incubation cabinet at approximately 20° C. and a relative atmospheric humidity of 100%.
The test is evaluated 3 days after the inoculation. 0% means an efficacy which corresponds to that of the untreated control while an efficacy of 100% means that no disease is observed.

A further assay deals with Venturia inaequalis. Kind of assay: In vivo preventive test on Venturia test (apples) (Example G2). To be noted: 10 days after inoculation.
Source text: as §1, §2, §3, §4, §5, §6, §7
To test for preventive activity, young plants are sprayed with the preparation of active compound at the stated rate of application. After the spray coating has dried on, the plants are inoculated with an aqueous conidia suspension of the causal agent of apple scab (Venturia inaequalis) and then remain for 1 day in an incubation cabinet at approximately 20° C. and a relative atmospheric humidity of 100%.
The plants are then placed in a greenhouse at approximately 21° C. and a relative atmospheric humidity of approximately 90%.
The test is evaluated 10 days after the inoculation. 0% means an efficacy which corresponds to that of the untreated control, while an efficacy of 100% means that no disease is observed.

The next assay has as its system lentils. Put plainly: Field trials in lentils Western Canada 2018, yield (Example H). In kind it is in vivo. How it is done:
Field trials in lentils were conducted in Western Canada in spring/summer 2018.
(§8) Fertilization and herbicide applications were carried out according to the local agricultural practice.
(§9) Fluopyram was added to Delaro in a final concentration of 50, 75 and 90 g/ha.
The following products as shown in Table 18 were sprayed using a Backpack hand boom sprayer with air induction flat fan spray nozzles applying 93.5 L/Ha spray solution at crop BBCH—growth stage 62-63.

The next assay concerns field peas. Kind of assay: Field trials in field peas Western Canada 2018, yield (Example I). It counts as in vivo. The procedure:
Field trials in field peas were conducted in Western Canada in spring/summer 2018.
as §8, §9
The following products as shown in Table 20 were sprayed using a Backpack hand boom sprayer with flat fan spray nozzles applying 93.5 L/ha spray solution at crop BBCH growth stage 63.

`O=C(NCCc1ncc(C(F)(F)F)cc1Cl)c1ccccc1C(F)(F)F` [Fluopyram, N-[2-[3-chloro-5-(trifluoromethyl)-2-pyridinyl]ethyl]-2-(trifluoromethyl)benzamide]: the Efficacy % is given as 5% in the assay with Alternaria solani (fluopyram 0.75 ppm); 8% in the assay with Alternaria solani (fluopyram 1.5 ppm); 10% in the assay with Alternaria solani (fluopyram 3 ppm); 0% with Venturia inaequalis (fluopyram 0.75 ppm); 0% in the assay with Venturia inaequalis (fluopyram 1.5 ppm); 5% with Venturia inaequalis (fluopyram 3 ppm). Further, the “Yield [% of Priaxor treatment-Priaxor is 100%]” value is recorded as 93.8 % of Priaxor treatment in the assay with lentils (BBCH 62-63, Fluopyram 50 g/ha); 96.3 % of Priaxor treatment in the assay on lentils (BBCH 62-63, Fluopyram 75 g/ha); 98.9 % of Priaxor treatment in the assay on field peas (BBCH 63, Fluopyram 50 g/ha); 99.7 % of Priaxor treatment in the assay with field peas (BBCH 63, Fluopyram 75 g/ha).

As to `OC(Cc1ccccc1Cl)(Cn1nc[nH]c1=S)C1(Cl)CC1` (stereo not shown) [Prothioconazole, 2-[2-(1-chlorocyclopropyl)-3-(2-chlorophenyl)-2-hydroxypropyl]-1,2-dihydro-3H-1,2,4-triazole-3-thione], the Efficacy % in the assay on Alternaria solani (prothioconazole 1.05 ppm) is 0%; in the assay on Alternaria solani (prothioconazole 2.1 ppm) it was 0%; in the assay with Alternaria solani (prothioconazole 4.2 ppm) it was 10%; in the assay with Venturia inaequalis (prothioconazole 1.05 ppm) it was 0%; with Venturia inaequalis (prothioconazole 2.1 ppm) it was 17%; in the assay on Venturia inaequalis (prothioconazole 4.2 ppm) it was 41%.

Take `CO/N=C(/C(=O)OC)c1ccccc1CO/N=C(\C)c1cccc(C(F)(F)F)c1` [Trifloxystrobin, methylalpha-(methoxyimino)-2-[[[[1-[3-(trifluoromethyl)phenyl]ethylidene]amino]oxy]methyl]-benzeneacetate]: the Efficacy % worked out at 23% with Alternaria solani (trifloxystrobin 0.9 ppm); 31% with Alternaria solani (trifloxystrobin 1.8 ppm); 41% in the assay with Alternaria solani (trifloxystrobin 3.6 ppm); 40% with Venturia inaequalis (trifloxystrobin 0.9 ppm); 65% with Venturia inaequalis (trifloxystrobin 1.8 ppm); 89% in the assay with Venturia inaequalis (trifloxystrobin 3.6 ppm).

For the origin of these results see US12439919B2, “Active compound combinations” (priority 2019, dated 2025).
